# Laboratory results published in paper PMC4919188 (Nature, 2016).
# Experiments:
# [1] = system: high-threshold colonic afferents from CVH mice; experiment: Ex vivo gut-nerve recording, high-threshold colonic afferents, CVH mice; design: species or system mouse
# [2] = system: P0 mouse TG neurons; experiment: Ratiometric calcium imaging, P0 mouse TG neurons; assay type: cell-based; conditions: ICA-121431 500 nM, SGTx1 500 nM; P0 mouse neurons (Extended Data Fig. 1d)
# [3] = system: high-threshold colonic afferents from healthy mice; experiment: Ex vivo gut-nerve recording, high-threshold colonic afferents, healthy mice; design: species or system mouse; conditions: ICA-121432 with or without Hm1a (100 nM), afferents/total
# [4] = system: nerve-injury evoked mechanical allodynia; conditions: cited from earlier work
# [5] = system: mouse paw mechanical response threshold; experiment: Von Frey test, mechanical sensitivity; assay type: in vivo; conditions: native Hm1b 500 nM intraplantar, n = 5
molecule,measurement,setting,value
O=C(Nc1ccc(S(=O)(=O)Nc2nccs2)cc1)C(c1ccccc1)c1ccccc1 [ICA-121431],sensitizing effects of Hm1a,[1]; ICA-121431 with Hm1a,blocked the sensitizing effects of Hm1a
same,afferents unaltered by ICA,"[1]; ICA-121432 with or without Hm1a, afferents/total",3/10
same,block of SGTx1-evoked calcium responses,[2],only partially blocked
same,afferents unaltered by ICA,[3],5/10
NC(=O)c1cn(Cc2c(F)cccc2F)nn1 [rufinamide],effect on nerve-injury evoked mechanical allodynia,[4],diminish nerve-injury evoked mechanical allodynia
Hm1b: inhibitor cysteine knot (ICK) peptide from venom of the tarantula Heteroscodra maculata,mechanical sensitization compared with Hm1a,[5],Equivalent mechanical sensitization
